Laboratory results reported in article PMC8443589, “Modelling human liver fibrosis in the context of non-alcoholic steatohepatitis using a microphysiological system” (Communications Biology, 2021).
Values joined by “and” are separate entries in the source; they are usually repeats but may differ in a detail not shown here. Equal values may be shown once.

Legend:
[1] = Protein binding in HEP-Fat cell culture media by rapid equilibrium dialysis; format: in vitro ADME; conditions: for fraction unbound: HEP-Fat cell culture media, HEP-FAT media, rapid-equilibrium dialysis
Experimental: (§1) Despite many on-going clinical trials, there is still no approved treatment for NASH, but emerging data provide confidence that NASH is a pharmacologically responsive disease. […] First, we set out to determine an optimal dosing strategy for each of the treatments based on an assessment of their physicochemical properties and pharmacokinetic behaviour within the MPS device (Table 1). Non-specific binding to the MPS device was determined after a 72 h incubation with each candidate drug at 1 μM (Table 1). Both candidate drugs were calculated to have less than 0.1% loss as a consequence of non-specific binding to the MPS device (Table 1). […] Because the hepatocytes within the MPS device are metabolically competent, we evaluated the half-life for each candidate drug in NASH microtissues.
(§2) To determine the metabolic turnover of obeticholic acid and elafibranor in the MPS platform, both compounds were incubated with liver microtissues for 48 h starting at 1 µM and media samples taken at regular intervals (AdooQ Bioscience, UK). The presence of each compound in the cell culture medium was quantified by liquid chromatography-tandem mass spectrometry (LC-MS/MS). Samples were separated using a Waters Acquity UPLC system with an ACE Excel C18-AR column and analysed on a Waters TQ-S Micro mass spectrometer against quantitative standard curves. Both compounds were also assessed for protein binding in HEP-Fat media using rapid equilibrium dialysis (RED) and quantified using the same LC-MS/MS methodology.

human NASH patients = conditions: cited from earlier work
[2] = test system: liver MPS NASH model (PHH, KC and HSC co-cultures, high fat); assay: Quantitative confocal imaging of collagen type 1 and alpha SMA in liver MPS NASH model dosed with OCA or ELF; format: cell-based, human; conditions: for Collagen type 1 fluroscent marker intensity: per MPS scaffold; for reduction of collagen-1 deposition / reduction of α-SMA expression: fat only NASH model, 10 days; for reduction of α-SMA expression: concentration-dependent
Experimental: Fig. 3 Obeticholic acid and Elafibranor both modulate inflammatory and fibrosis phenotype in liver MPS NASH model and phenotype can additionally be reversed with dietary changes. PHH, KC and HSC co-cultures were cultured in the MPS platform under high fat conditions and dosed with varying concentrations of Obeticholic acid (OCA) and Elafibranor (ELF) QD or vehicle control (control) for 10 days, following an initial 4-day pre-culture phase. a The secreted cytokine profile from liver microtissues was compared by Luminex to determine the effects of each compound on the inflammatory profile of the liver with samples analysed at day 8 and 14 of the culture. Data were normalised by Z-transformation to allow comparison of all analytes and presented as a heatmap. b The expression of fibrosis-associated genes was analysed in total RNA from control, OCA and ELF treated liver microtissues (highest concentration for each compound) using Human Fibrosis RT2 Profiler PCR Arrays. Gene expression changes are expressed as a fold change over control. c Liver microtissues were stained for collagen-type I, α-SMA, nuclei (DAPI - blue), phalloidin (green) and imaged by confocal microscopy. Representative images are shown and scale bars 200 µm. d Staining of microtissue was quantified by measuring total fluorescence intensity throughout individual microtissues, each data point represents an average of all the microtissues imaged within an MPS scaffold (min 8, max 20 microtissues). e PHH, KC and HSC co-cultures were cultured in the MPS platform under high fat or lean conditions for 30 days. Cultures either remained in the same type of media throughout or were switched at day 15 from fat media to lean media (Fat -> Lean). Cell culture medium samples were analysed for the presence of IL-6, f MCP-1, g TIMP-1, which were measured by ELISA. h Microtissues were stained with Oil-Red O to determine fat loading during culture period, total stain was quantified by absorbance at 510 nm. All datapoints shown, either as box-whisker plots highlighting mean and min-max or with error bars highlighting means ± SD. All data from a minimum of three independent cultures; statistical comparisons made to control samples unless other comparison shown.
To visualise fibrosis proteins in the liver microtissues, scaffolds were fixed for 15 min in 4% paraformaldehyde following culture in the MPS platform. They were permeabilized with 0.1% Triton-X and blocked with 2% BSA before staining overnight at 4 °C with antibodies against alpha SMA (Abcam, UK - ab7817) and collagen 1 (Rockland, USA—600 401 103 0.5). Scaffolds were then stained with fluorescently conjugated secondary antibodies (Alexa-Fluor 555 goat anti-rabbit #A21429; Alexa-Fluor 647 donkey anti-rabbit #A31573; Alexa-Fluor 555 goat anti-mouse #A21424; Alexa-Fluor 647 goat anti-mouse #A21235 (Thermofisher, UK) along with Phalloidin 488 (Thermofisher, UK) and Hoechst 33342 (Invitrogen) for 1.5 h at room temperature. Scaffolds were washed three times with PBS and mounted onto glass microscope slides with anti-fade mounting medium. Confocal fluorescent images of the stained scaffolds were captured using a Cell Voyager 7000 (CV700, Yokogawa Inc.) automated confocal microscope. Image acquisition was controlled using the SearchFirst functionality of the Wako Software suite (Fujifilm Wako Automation). A workflow was designed to automatically locate and acquire images of each scaffold in a consistent and unbiased manner (Supp. Fig. 1). The workflow consisted of a first round of acquisition where the entire slide is imaged at low (4×) magnification capturing the Hoechst channel only. Images were automatically stitched together using a MATLAB script and eight regions of interest (ROI) were identified on each scaffold (same array of ROI per scaffold). XY coordinates were fed back to the microscope which subsequently imaged each ROI with full Z stacks obtained at ×10 magnification, 120 µm stack with a 5 µm slice interval. […]

[3] = test system: NASH liver microtissues (PHH, KC and HSC co-cultures); assay: Metabolic turnover (T1/2) in NASH liver microtissues in the MPS platform, LC-MS/MS; format: in vitro ADME, human; conditions: 1 µM, 48 hours
Experimental: as §1, §2
Supplemental Figure 5 – Obeticholic acid and Elafibranor are metabolised in the NASH MPS model.
The metabolism of a) Elafibranor and b) Obeticholic acid and was assessed in PHH, KC and HSC co-cultures grown in the liver MPS platform for 7 days. Following a double media exchange the compounds were incubated with the microtissues at a starting concentration of 1 µM and media samples taken at regular intervals across 48 hours. Media samples were assessed for the concentration of compound by quantitative LC-MS.
(1 picture or pasted object on this page, not shown here)

[4] = parameters: method as in PMID 27743502; conditions: cited from earlier work

Q: For `CSc1ccc(C(=O)/C=C/c2cc(C)c(OC(C)(C)C(=O)O)c(C)c2)cc1` [Elafibranor], which fraction unbound [1] is on record?
A: 0.02

Q: What about the “Protein binding within the fat culture medium” value [1] of the same molecule?
A: highly protein-bound

Q: What about the “NASH resolution, post-hoc analysis of the GOLDEN-505 phase 2b trial” value (human NASH patients; 120 mg) of the same molecule?
A: significant effect on NASH resolution

Q: And the “NASH resolution and fibrosis improvement in phase 3 trial” value (human NASH patients; 16-month interim analysis)?
A: did not reach statistical significance

Q: What about the “Collagen type 1 fluroscent marker intensity” value ([2]; ELF 13 uM QD 10 days, listed as ELF) of the same molecule?
A: 1659.63 and 1182.93 and 1579.82 and 1137.61 and 1507.1

Q: And the “reduction of collagen-1 deposition” value [2]?
A: up to 35%

Q: And the “reduction of α-SMA expression” value [2]?
A: up to 50%

Q: What about the “metabolism in the NASH MPS model” value [3] of the same molecule?
A: metabolised

Q: Which fraction unbound [1] does the source give for `CC[C@H]1[C@@H](O)[C@@H]2[C@H](CC[C@]3(C)[C@@H]([C@H](C)CCC(=O)O)CC[C@@H]23)[C@@]2(C)CC[C@@H](O)C[C@@H]12` [Obeticholic acid] here?
A: < 0.01

Q: What about the “Protein binding within the fat culture medium” value [1] of the same molecule?
A: highly protein-bound

Q: What about the “NASH resolution in phase 3 trial” value (human NASH patients; 18-month interim analysis) of the same molecule?
A: did not reach statistical significance

Q: What about the “liver fibrosis in phase 3 trial” value (human NASH patients; 18-month interim analysis) of the same molecule?
A: improved liver fibrosis

Q: And the Plasma protein binding [4]?
A: >99%

Q: And the “Collagen type 1 fluroscent marker intensity” value ([2]; OCA 0.25 uM QD 10 days, listed as OCA)?
A: 2993.61 and 2644.36 and 2590.02 and 1579.53

Q: What about the “Collagen type 1 fluroscent marker intensity” value ([2]; OCA 5 uM QD 10 days, listed as OCA) of the same molecule?
A: 1471.67 and 1379.09 and 1471.56 and 1817.03 and 1176.35 and 1231.08

Q: And the “reduction of collagen-1 deposition” value [2]?
A: up to 35%

Q: What about the “reduction of α-SMA expression” value [2] of the same molecule?
A: up to 50%

Q: What about the “metabolism in the NASH MPS model” value [3] of the same molecule?
A: metabolised
